In patent publication US20030004172A1, “Fused pyrimidinone matrix metalloproteinase inhibitors” (priority 2001, published 2003):

Each molecule was assayed against MMP-13CD (catalytic domain of collagenase-3) (Homo sapiens, UniProt P45452) (assay: Thiopeptolide substrate hydrolysis inhibition assay, MMP-13CD). Conditions: Table I; thiopeptolide substrate, HEPES pH 7.0, 22° C.; read-out: MMP-13CD IC50.
Type: biochemical
Text: Thiopeptolide substrates show virtually no decomposition or hydrolysis at or below neutral pH in the absence of a matrix metalloproteinase enzyme.

Molecule | IC50
Cn1c(=O)n(Cc2ccc(C(=O)O)c(O)c2)c(=O)c2cc(C(N)=O)sc21 [Example 251] | 655 nM
Cn1c(=O)n(Cc2ccc(C(C)(C)C)cc2)c(=O)c2cc(C(=O)OCc3ccccc3)sc21 [Example 309, 3-(4-tert-Butyl-benzyl)-1-methyl-2,4-dioxo-1,2,3,4-tetrahydro-thieno[2,3-d]pyrimidine-6-carboxylic acid benzyl ester] | 56 nM
Cn1c(=O)n(Cc2ccccc2)c(=O)c2cc(C(=O)OCc3ccccc3C(F)(F)F)sc21 [Example 169, 3-Benzyl-1-methyl-2,4-dioxo-1,2,3,4-tetrahydro-thieno[2,3-d]pyrimidine-6-carboxylic acid 2-trifluoromethyl-benzyl ester] | 30000 nM
COc1cccc(Cn2c(=O)c3cc(C(=O)OCc4ccccc4)sc3n(C)c2=O)c1 [Example 98, 3-(3-Methoxy-benzyl)-1-methyl-2,4-dioxo-1,2,3,4-tetrahydro-thieno[2,3-d]pyrimidine-6-carboxylic acid benzyl ester] | 63 nM
O=C(OCc1ccccc1)c1cc2c(=O)n(Cc3ccccc3)c(=O)n(CC3CC3)c2s1 [Example 74, 3-Benzyl-1-cyclopropylmethyl-2,4-dioxo-1,2,3,4-tetrahydro-thieno[2,3-d]pyrimidine-6-carboxylic acid benzyl ester] | 71500 nM
Cn1c(=O)n(CC2CO2)c(=O)c2cc(C(=O)OCc3ccccc3)sc21 (stereo not drawn) [Example 119, 1-Methyl-3-oxiranylmethyl-2,4-dioxo-1,2,3,4-tetrahydro-thieno[2,3-d]pyrimidine-6-carboxylic acid benzyl ester] | 510 nM
O=C(OCc1ccoc1)c1cc2c(=O)n(Cc3ccccc3)c(=O)[nH]c2s1 [Example 13, 3-Benzyl-2,4-dioxo-1,2,3,4-tetrahydro-thieno[2,3-d]pyrimidine-6-carboxylic acid furan-3-ylmethyl ester] | 18000 nM
Cn1c(=O)n(Cc2ccccc2)c(=O)c2cc(C(=O)NCc3ccncc3)sc21 [Example 75, 3-Benzyl-1-methyl-2,4-dioxo-1,2,3,4-tetrahydro-thieno[2,3-d]pyrimidine-6-carboxylic acid (pyridin-4-ylmethyl)-amide] | 345 nM
Cn1c(=O)n(Cc2ccc(F)cc2)c(=O)c2cc(C(=O)OCc3ccccc3)sc21 [Example 118, 3-(4-Fluoro-benzyl)-1-methyl-2,4-dioxo-1,2,3,4-tetrahydro-thieno[2,3-d]pyrimidine-6-carboxylic acid benzyl ester] | 15 nM
COc1ccc(CCNC(=O)c2cc3c(=O)n(Cc4ccccc4)c(=O)n(C)c3s2)cc1 [Example 355, 3-Benzyl-1-methyl-2,4-dioxo-1,2,3,4-tetrahydro-thieno[2,3-d]pyrimidine-6-carboxylic acid[2-(4-methoxy-phenyl)-ethyl]-amide] | > 100000 nM
COc1ccc(CNC(=O)c2cc3c(=O)n(CCN)c(=O)n(C)c3s2)cc1 [Example 235, 3-(2-aminoethyl)-1-methyl-2,4-dioxo-1,2,3,4-tetrahydro-thieno[2,3-d]pyrimidine-6-carboxylic acid 4-methoxy-benzylamide] | 18000 nM
COC(=O)c1ccc(Cn2c(=O)c3cc(C(=O)NCc4ccc(OC)cc4)sc3n(C)c2=O)cc1 [Example 239, 4-[6-(4-Methoxy-benzylcarbamoyl)-1-methyl-2,4-dioxo-1,4-dihydro-2H-thieno[2,3-d]pyrimidin-3-ylmethyl]-benzoic acid methyl ester] | 58.5 nM
COC(=O)c1cc2c(=O)n(Cc3ccccc3)c(=O)n(C)c2s1 [Example 300, 3-Benzyl-1-methyl-2,4-dioxo-1,2,3,4-tetrahydro-thieno[2,3-d]pyrimidine-6-carboxylic acid methyl ester] | > 100000 nM
Cn1c(=O)n(CCOc2ccccc2)c(=O)c2cc(C(=O)OCc3ccccc3)sc21 [Example 132, 1-Methyl-2,4-dioxo-3-(2-phenoxy-ethyl)-1,2,3,4-tetrahydro-thieno[2,3-d]pyrimidine-6-carboxylic acid benzyl ester] | 74 nM
Cn1c(=O)n(Cc2ccccc2)c(=O)c2cc(C(=O)NCc3ccc(Cl)cc3Cl)sc21 [Example 329, 3-Benzyl-1-methyl-2,4-dioxo-1,2,3,4-tetrahydro-thieno[2,3-d]pyrimidine-6-carboxylic acid 2,4-dichloro-benzylamide] | 30000 nM
CCCCCC#CCn1c(=O)c2cc(C(=O)NCc3ccc(OC)cc3)sc2n(C)c1=O [Example 230, 1-Methyl-3-oct-2-ynyl-2,4-dioxo-1,2,3,4-tetrahydro-thieno[2,3-d]pyrimidine-6-carboxylic acid 4-methoxy-benzylamide] | 77 nM
Cn1c(=O)n(Cc2ccccc2)c(=O)c2cc(C(=O)OCC(Cl)(Cl)Cl)sc21 [Example 171, 3-Benzyl-1-methyl-2,4-dioxo-1,2,3,4-tetrahydro-thieno[2,3-d]pyrimidine-6-carboxylic acid 2,2,2-trichloro-ethyl ester] | 14000 nM
Cn1c(=O)n(Cc2ccccc2)c(=O)c2cc(C(=O)OCCN3CCCC3)sc21 [Example 175, 3-Benzyl-1-methyl-2,4-dioxo-1,2,3,4-tetrahydro-thieno[2,3-d]pyrimidine-6-carboxylic acid 2-pyrrolidin-1-yl-ethyl ester] | > 100000 nM

Molecule | IC50
COc1cccc(CNC(=O)c2cc3c(=O)n(Cc4ccc(N)nc4)c(=O)n(C)c3s2)c1 [Example 384, 3-(6-Amino-pyridin-3-ylmethyl)-1-methyl-2,4-dioxo-1,2,3,4-tetrahydro-thieno[2,3-d]pyrimidine-6-carboxylic acid 3-methoxy-benzylamide] | 660 nM
COc1ccc(CNC(=O)c2cc3c(=O)n(CCS(=O)(=O)c4ccc(Cl)cc4)c(=O)n(C)c3s2)cc1 [Example 247, 3-[2-(4-Chloro-benzenesulfonyl)-ethyl]-1-methyl-2,4-dioxo-1,2,3,4-tetrahydro-thieno[2,3-d]pyrimidine-6-carboxylic acid 4-methoxy-benzylamide] | 7200 nM
COc1cc(CNC(=O)c2cc3c(=O)[nH]c(=O)n(C)c3s2)ccn1 [Example 219, 1-methyl-2,4-dioxo-1,2,3,4-tetrahydro-thieno[2,3-d]pyrimidine-6-carboxylic acid (2-methoxy-pyridin-4-ylmethyl)-amide] | 17000 nM
COc1ccc(CNC(=O)c2cc3c(=O)n(Cc4ccc(F)cc4)c(=O)n(C)c3s2)cc1 [Example 60, 3-(4-Fluoro-benzyl)-1-methyl-2,4-dioxo-1,2,3,4-tetrahydro-thieno[2,3-d]pyrimidine-6-carboxylic acid 4-methoxy-benzylamide] | 160 nM
C=C(Cn1c(=O)c2cc(C(=O)OCc3ccccc3)sc2n(C)c1=O)C(=O)O [Example 114] | 330 nM
COC(=O)C1CCC(Cn2c(=O)c3cc(C(=O)NCc4cccc(OC)c4)sc3n(C)c2=O)CC1 (stereo not drawn) [Example 91, 4-[6-(3-Methoxy-benzylcarbamoyl)-1-methyl-2,4-dioxo-1,4-dihydro-2H-thieno[2,3-d]pyrimidin-3-ylmethyl]-cyclohexanecarboxylic acid methyl ester] | 49.6 nM
Cn1c(=O)n(Cc2ccccc2)c(=O)c2cc(C(=O)OCCN3CCOCC3)sc21 [Example 174, 3-Benzyl-1-methyl-2,4-dioxo-1,2,3,4-tetrahydro-thieno[2,3-d]pyrimidine-6-carboxylic acid 2-morpholin-4-yl-ethyl ester] | > 100000 nM
Cn1c(=O)n(Cc2ccccc2)c(=O)c2cc(C(=O)OCCC(c3ccccc3)c3ccccc3)sc21 [Example 205, 3-Benzyl-1-methyl-2,4-dioxo-1,2,3,4-tetrahydro-thieno[2,3-d]pyrimidine-6-carboxylic acid 3,3-diphenyl-propyl ester] | 19000 nM
COc1cccc(CNC(=O)c2cc3c(=O)n(CCOc4ccccc4)c(=O)n(C)c3s2)c1 [Example 297] | 57 nM
Cn1c(=O)n(Cc2ccccc2)c(=O)c2cc(C(=O)NCCc3ccncc3)sc21 [Example 325, 3-Benzyl-1-methyl-2,4-dioxo-1,2,3,4-tetrahydro-thieno[2,3-d]pyrimidine-6-carboxylic acid (2-pyridin-4-yl-ethyl)-amide] | > 100000 nM
COC(=O)Nc1cc(Cn2c(=O)c3cc(C(=O)NCc4ccc(OC)cc4)sc3n(C)c2=O)on1 [Example 276] | 230 nM
Cc1ccc(Cn2c(=O)c3cc(C(=O)OCc4ccccc4)sc3n(C)c2=O)cc1 [Example 103, 1-Methyl-3-(4-methyl-benzyl)-2,4-dioxo-1,2,3,4-tetrahydro-thieno[2,3-d]pyrimidine-6-carboxylic acid benzyl ester] | 30 nM
COc1cccc(CNC(=O)c2cc3c(=O)n(CC=C(C)C)c(=O)n(C)c3s2)c1 [Example 292] | 10000 nM
Cn1c(=O)n(Cc2ccccc2)c(=O)c2cc(C(=O)OCc3ccc(F)cc3)sc21 [Example 153, 3-Benzyl-1-methyl-2,4-dioxo-1,2,3,4-tetrahydro-thieno[2,3-d]pyrimidine-6-carboxylic acid 4-fluoro-benzyl ester] | 4 nM
3-(4-Carboxy-benzyl)-1-methyl-2,4-dioxo-1,2,3,4-tetrahydro-thieno[2,3-d]pyrimidine-6-carboxylic acid 2-ethoxy-benzyl ester [Example 319] | 8000 nM
Cn1c(=O)n(Cc2ccccc2)c(=O)c2cc(C(=O)OCc3ccc4occc4c3)sc21 [Example 314, 3-Benzyl-1-methyl-2,4-dioxo-1,2,3,4-tetrahydro-thieno[2,3-d]pyrimidine-6-carboxylic acid benzofuran-5-ylmethyl ester] | 18.5 nM
Cc1ccccc1CNC(=O)c1cc2c(=O)n(Cc3ccccc3)c(=O)n(C)c2s1 [Example 337, 3-Benzyl-1-methyl-2,4-dioxo-1,2,3,4-tetrahydro-thieno[2,3-d]pyrimidine-6-carboxylic acid 2-methyl-benzylamide] | > 100000 nM
Cn1c(=O)n(Cc2ccccc2)c(=O)c2cc(C(=O)OCC3CCCCO3)sc21 (stereo not drawn) [Example 178, 3-Benzyl-1-methyl-2,4-dioxo-1,2,3,4-tetrahydro-thieno[2,3-d]pyrimidine-6-carboxylic acid tetrahydro-pyran-2-ylmethyl ester] | > 100000 nM
